Assay results published in US20100151508A1, “COMPOUNDS” (THE ROBERT GORDON UNIVERSITY, priority 2006, published 2010).
Values belong to the compound of their own block, whether it stands above or below them.

Assays:
[1] = Fluorescence emission of myricetin derivatives (fluorimetry); format: physicochemical; conditions: 2.5 μM in ethanol (KB861 in THF); for λmax (nm): fluorescence emission
Protocol: All the KBX compounds and Myricetin were prepared for analysis of their fluorescent properties (Table 1) using ethanol as the solvent, with the exception of KB861 which used tetrahydrofuran (THF). All measurements were taken at a compound concentration of 2.5 μM.

Caco-2 cells [2] = test: Probe fluorescence in menadione stressed versus healthy Caco-2 cells (fluorescence microscopy); format: cell-based, human; conditions: for Effect of menadione concentration on intracellular fluorescence: Caco-2, 1, 10 and 20 μM menadione; for Decrease in fluorescence in stressed cells compared to healthy cells: confluent Caco-2, menadione stress, 20 μM probe; for Fluorescence in menadione exposed cultures relative to control non-stressed cultures: pre-confluent, proliferating Caco-2 cultures
Protocol: Initially, confluent Caco-2 cells were placed under stress using menadione then incubated with 20 μM KB861 for 30 minutes. The fluorescence of KB861 in stressed cells was then compared to that of KB861 in healthy cells using fluorescence microscopy (FIG. 5).
Confluent Caco-2 cells were placed under stress using Menadione then incubated with 20 μM KB474 for 1 minute (FIG. 6) and 15 minutes (FIG. 7). The fluorescence of the compound in the stressed cells was then compared to its fluorescence in healthy Caco-2 cells.
Pre-confluent, proliferating Caco-2 cultures were also exposed to menadione prior to staining with KB861 or KB474.
The effect of menadione concentration on the intracellular fluorescence of compound KB861 and KB474 was also investigated.

Caco-2 cells [3] = test: Probe fluorescence in Caco-2 cells after glutathione depletion by BSO; format: cell-based, human; conditions: Caco-2, glutathione depleted by progressive BSO exposure
From the text: To examine probe sensitivity to a less severe, more gradually provoked physiological oxidative stress within Caco-2 cells, cellular glutathione was depleted by progressive buthionine sulphoximine (BSO) exposure.

[4] = In vitro oxidation of KB861 solutions, analysed by fluorimetry; format: physicochemical
Protocol: A series of K5861 solutions (0.5, 1.0, and 1.5 μM) were prepared using THF. […] Another series of KB861 solutions of the same concentrations were prepared and analysed by fluorimetry in their natural unoxidised state (Graph 1).

Compound: CCc1ccc2c(=O)c(O)c(-c3cc(O)c(O)c(O)c3)oc2c1 [KB474, 7-ethyl-3-hydroxy-2-(3,4,5-trihydroxyphenyl)-4H-1-benzopyran-4-one]
Emission intensity [1]: 321.113
λmax (nm) [1]: 504.9 nm
Effect of menadione concentration on intracellular fluorescence (Caco-2 cells [2]): dose dependent decrease
Decrease in fluorescence in stressed cells compared to healthy cells (Caco-2 cells [2]; 1 minute and 15 minutes): at least 75%
Fluorescence in menadione exposed cultures relative to control non-stressed cultures (Caco-2 cells [2]): dramatically decreased
Fluorescence emission after BSO exposure (Caco-2 cells [3]): striking decrease

Compound: CCCCCCCCCCc1ccc2c(=O)c(O)c(-c3cc(O)c(O)c(O)c3)oc2c1 [KB861, 7-decyl-3-hydroxy-2-(3,4,5-trihydroxyphenyl)-4H-1-benzopyran-4-one]
Emission intensity [1]: 664.669
λmax (nm) [1]: 544.7 nm
Fluorescence emission at 540 nm, natural unoxidised state ([4]; 0.5, 1.0, 1.5 μM in THF): highly fluorescent
Fluorescence emission at 540 nm after oxidation ([4]; 0.5, 1.0, 1.5 μM in THF, oxidised by excess AgO): almost completely disappears
Fluorescence on exposure to hydrogen peroxide ([4]; hydrogen peroxide as stated): diminished
Effect of menadione concentration on intracellular fluorescence (Caco-2 cells [2]): correlated with the concentration of menadione exposure
Decrease in fluorescence in stressed cells compared to healthy cells (Caco-2 cells [2]; 30 minutes): 30-40%
Fluorescence in menadione exposed cultures relative to control non-stressed cultures (Caco-2 cells [2]): dramatically decreased
Fluorescence emission after BSO exposure (Caco-2 cells [3]): striking decrease

Compound: O=c1c(O)c(-c2cc(O)c(O)c(O)c2)oc2cc(O)cc(O)c12 [Myricetin, 3,5,7-trihydroxy-2-(3,4,5-trihydroxyphenyl)-4H-1-benzopyran-4-one, reference compound]
Emission intensity [1]: 17.419
λmax (nm) [1]: 499.5 nm

The next lines start with the values.

Emission intensity [1]: 0.286
λmax (nm) [1]: 514.1 nm
Compound: CCCCCCCCCCc1ccc2c(=O)c(O)c(-c3cc(O)c(O)cc3O)oc2c1 [AOX166]

Emission intensity [1]: 0.166
λmax (nm) [1]: 457.1 nm
Compound: O=c1c(O)c(-c2ccc(O)c(O)c2O)oc2ccccc12 [AOX558]

Emission intensity [1]: 0.199
λmax (nm) [1]: 517.0 nm
Compound: O=c1c(O)c(-c2cc(O)c(O)cc2O)oc2ccccc12 [AOX563]
